The molecules below were run on pentagastrin-stimulated acid secretion of the perfused rat stomach (assay: Secretion-inhibiting action on the perfused rat stomach (pentagastrin-stimulated acid secretion, intraduodenal administration in vivo)). Conditions: Table A, dose 1 μmol/kg i.d., anesthetized CD rat.
Source text: Testing of the Secretion-Inhibiting Action on the Perfused Rat Stomach
In Table A which follows, the influence of the compounds of the formula 1 according to the invention on the pentagastrin-stimulated acid secretion of the perfused rat stomach after intraduodenal administration in vivo is shown.
In Table B which follows, the influence of the compounds of the formula 1-a according to the invention and of their optical antipodes of the formula 1-b on the pentagastrin-stimulated acid secretion of the perfused rat stomach after intraduodenal administration in vivo is shown.
The abdomen of anesthetized rats (CD rat, female, 200-250 g; 1.5 g/kg i.m. urethane) was opened after tracheotomy by a median upper abdominal incision and a PVC catheter was fixed transorally in the esophagus and another via the pylorus such that the ends of the tubes just projected into the gastric lumen. The catheter leading from the pylorus led outward into the right abdominal wall through a side opening.
After thorough rinsing (about 50-100 ml), warm (37° C.) physiological NaCl solution was continuously passed through the stomach (0.5 ml/min, pH 6.8-6.9; Braun-Unita I). The pH (pH meter 632, glass electrode EA 147; φ=5 mm, Metrohm) and, by titration with a freshly prepared 0.01N NaOH solution to pH 7 (Dosimat 665 Metrohm), the secreted HCl were determined in the effluent in each case collected at an interval of 15 minutes.
The gastric secretion was stimulated by continuous infusion of […] (=1.65 ml/h) of i.v. pentagastrin (left femoral vein) about 30 min after the end of the operation (i.e. after determination of 2 preliminary fractions). The substances to be tested were administered intraduodenally in a 2.5 ml/kg liquid volume 60 min after the start of the continuous pentagastrin infusion. The body temperature of the animals was kept at a constant 37.8-38° C. by infrared irradiation and heat pads (automatic, stepless control by means of a rectal temperature sensor).

Structure (SMILES)	Inhibition of acid secretion (%)
COCCNC(=O)c1c(C)nc2c3c(c(C(=O)N(C)C)cn12)CCC(c1ccccc1)O3 (centres unmarked) [Example 4, 2-Methyl-9-phenyl-7H-8,9-dihydro-pyrano[2,3-c]imidazo[1,2-a]pyridine-3,6-dicarboxylic acid 3-[(2-methoxyethyl)amide]6-dimethylamide]	>40
CC#CC(=O)c1c(C)nc2c3c(c(C(=O)N(C)C)cn12)CCC(c1ccccc1)O3 (centres unmarked) [Example 6, 2-Methyl-3-(1-oxo-2-butynyl)-9-phenyl-7H-8,9-dihydro-pyrano[2,3-c]imidazo[1,2-a]pyridine-6-carboxylic acid dimethylamide]	>40
CC(=O)c1c(C)nc2c3c(c(C(=O)N(C)C)cn12)CCC(c1ccccc1)O3 (centres unmarked) [Example 9, 3-Acetyl-2-methyl-9-phenyl-7H-8,9-dihydro-pyrano[2,3-c]imidazo-[1,2-a]pyridine-6-carboxylic acid dimethylamide]	>40
Cc1nc2c3c(c(C(=O)N4CCC4)cn2c1C)CCC(c1ccccc1)O3 (centres unmarked) [Example 11, (2,3-Dimethyl-9-phenyl-7H-8,9-dihydro-pyrano[2,3-c]-imidazo[1,2-a]pyridin-6-yl)-azetidin-1-yl methanone]	>70
Cc1nc2c3c(c(C(=O)NC4CC4)cn2c1C)CCC(c1ccccc1)O3 (centres unmarked) [Example 13, 2,3-Dimethyl-9-phenyl-7H-8,9-dihydro-pyrano[2,3-c]-imidazo[1,2-a]pyridine-6-carboxylic acid cyclopropylamide]	>70

Source: patent US20070191334A1, “Tricyclic imidazopyridines” (ALTANA PHARMA AG, priority 2004, published 2007)
